Data taken from patent US12156862B2, “Medicaments for the treatment of vasoconstriction related diseases or disorders” (Sulfateq B.V., priority 2017, dated 2024).
Marks after values point to notes of the source that are not given here.

What was measured:
[1] = molecular target: T1, human α1 adrenoceptor subtype A (Homo sapiens, UniProt P35348); assay: Phenylephrine-induced intracellular calcium (FLIPR Calcium 6) in CHO cells, α1A; assay type: cell-based
T1 construct: expressed in transfected cells; host or cells: CHO-K1
T1 sequence (P35348 1-466): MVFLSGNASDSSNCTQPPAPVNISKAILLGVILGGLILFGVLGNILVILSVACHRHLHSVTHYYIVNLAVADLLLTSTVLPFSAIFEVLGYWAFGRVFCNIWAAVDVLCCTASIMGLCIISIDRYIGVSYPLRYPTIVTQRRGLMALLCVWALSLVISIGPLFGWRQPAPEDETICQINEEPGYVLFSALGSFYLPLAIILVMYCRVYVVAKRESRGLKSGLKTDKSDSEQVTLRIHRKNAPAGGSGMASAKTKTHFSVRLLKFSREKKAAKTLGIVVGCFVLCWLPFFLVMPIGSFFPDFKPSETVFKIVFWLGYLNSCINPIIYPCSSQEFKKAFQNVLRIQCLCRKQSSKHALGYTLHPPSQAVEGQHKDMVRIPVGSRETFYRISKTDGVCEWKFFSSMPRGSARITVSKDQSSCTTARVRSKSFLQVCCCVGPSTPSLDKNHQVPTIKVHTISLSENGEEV
Method: (§1) CHO-K1 cells were stably transfected with a plasmid containing human al-AR subtypes A, B and D in separate cell lines in DMEM-F12 medium with 10% FBS, 1% penicillin-streptomycin and 200 μg/mL Geneticin (G418, Invitrogen, Carlsbad, CA).
(§2) On the next day, CHO cells were treated with either vehicle (0.1% DMSO) or SUL-121 enantiomers for 30 min at 37° C. and stimulated with a 3-fold dilution series of PE (20 μM-100 pM). [Ca^2], was measured using the fluorescent FLIPR Calcium 6 assay kit (Molecular Devices) in immortalized CHO cells stably expressing the α1 adrenoceptor.
(§3) Initially, calcium responses induced by non-cumulative concentration series of phenylephrine were investigated using fluorescent measurements in α1A adrenoceptor-overexpressing CHO cells treated with SUL-150 and SUL-151 (FIG. 4). Fluorescent measurement data was processed and analyzed in SoftMax Pro 7 and expressed as % of baseline AUC with a 3-fold multiplier using an average of first 10 measurement points as baseline.

[2] = molecular target: T2, human α1 adrenoceptor subtype D (Homo sapiens, UniProt P25100); assay: Phenylephrine-induced intracellular calcium (FLIPR Calcium 6) in CHO cells, α1D; assay type: cell-based
T2 construct: expressed in transfected cells; host or cells: CHO-K1
T2 sequence (P25100 1-572): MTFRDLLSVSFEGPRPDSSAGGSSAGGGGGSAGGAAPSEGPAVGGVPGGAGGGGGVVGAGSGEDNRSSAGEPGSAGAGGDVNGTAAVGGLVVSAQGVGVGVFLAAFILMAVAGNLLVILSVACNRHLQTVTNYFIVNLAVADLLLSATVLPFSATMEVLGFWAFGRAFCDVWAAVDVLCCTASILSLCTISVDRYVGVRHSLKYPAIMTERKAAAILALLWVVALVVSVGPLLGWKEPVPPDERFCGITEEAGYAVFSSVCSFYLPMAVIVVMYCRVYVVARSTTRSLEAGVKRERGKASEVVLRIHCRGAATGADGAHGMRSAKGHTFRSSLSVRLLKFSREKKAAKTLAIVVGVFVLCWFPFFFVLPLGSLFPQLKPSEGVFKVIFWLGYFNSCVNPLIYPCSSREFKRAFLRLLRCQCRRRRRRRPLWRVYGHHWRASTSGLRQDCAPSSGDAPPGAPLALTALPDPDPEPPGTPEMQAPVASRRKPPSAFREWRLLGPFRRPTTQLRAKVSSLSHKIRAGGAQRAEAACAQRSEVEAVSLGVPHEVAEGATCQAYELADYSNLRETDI
Method: as §1, §2, §3

[3] = test system: porcine intrarenal arteries (histamine induced constrictions); assay: Histamine-induced constriction of isolated porcine intrarenal arteries; conditions: for logEC50 of histamine-induced constriction responses: Porcine renalis
Method: (§4) Porcine kidneys were obtained from a local slaughterhouse (Kroon Vlees, Gotenburgweg 30, 9723 TM Groningen. The Netherlands) and transported on ice in normal physiological Krebs buffer containing 120 mM NaCl, 6 mM KCl, 2.5 mM CaCl2×2H2O, 1.2 mM MgCl2×6H2O, 1.2 mM NaH2PO4×H2O, 25 mM NaHCO3 and 11.4 mM D-(+)-Glucose monohydrate (all ingredients were purchased from Merck) in ultrapure water.
(§5) The renal artery tree was dissected from the kidney, cleaned of surrounding connective tissue and cut into equally-sized ring segments (2 mm in length). In some rings, endothelium denudation was performed by gentle rubbing of the intimal surface with a paper clip. Rings were mounted in organ baths as described previously (Buikema et al., 2000). Arterial rings were washed thoroughly by replacing Krebs buffer and allowed to equilibrate for a period of 60 min under 1.4 g of resting tension before they were assessed for viability by inducing 2 subsequent constrictions with KCl (60 mM). […] After washout and stabilization, rings were treated for 30 minutes by incubation with vehicle (0.1% DMSO), SUL-121, SUL-150 or SUL-151, followed by subsequent incubation with cumulative doses of phenylephrine.
(§6) To gain insight into receptor specificity of SUL-150, the effects of SUL-150 on histamine and U46619 (a synthetic thromboxane agonist) induced constrictions were investigated (FIG. 2).

thromboxane receptors = molecular target: T3, thromboxane receptors (Sus scrofa, UniProt A0A287A102); assay: U46619-induced constriction of isolated porcine intrarenal arteries; conditions: for logEC50 of U46619-induced constriction responses: Porcine renalis
T3 construct: from tissue; host or cells: porcine intrarenal artery rings
T3 sequence (A0A287A102 1-343): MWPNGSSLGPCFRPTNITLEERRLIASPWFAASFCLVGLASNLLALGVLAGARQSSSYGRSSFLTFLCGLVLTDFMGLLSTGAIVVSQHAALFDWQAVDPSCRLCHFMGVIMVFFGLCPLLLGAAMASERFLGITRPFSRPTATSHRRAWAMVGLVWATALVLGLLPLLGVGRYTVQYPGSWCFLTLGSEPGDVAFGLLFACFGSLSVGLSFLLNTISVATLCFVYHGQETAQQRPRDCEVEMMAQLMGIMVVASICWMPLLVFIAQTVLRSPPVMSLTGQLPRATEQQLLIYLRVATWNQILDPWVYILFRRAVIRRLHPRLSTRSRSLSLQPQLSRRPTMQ
Method: as §4, §5, §6

α1 adrenoceptor [4] = assay: Phenylephrine-induced constriction of isolated porcine intrarenal arteries (myography)
Method: as §4, §5
Dose-dependent constriction responses to phenylephrine (10^−8M-10^−4M) were recorded in said isolated porcine intrarenal arteries. Buffer was warmed to 37° C. and aerated with 95% O2 and 5% CO2 before use.
Vascular constriction responses are expressed as percentage of final response to KCl. Data are expressed as mean±SEM. *p<0.05.
To explore the effects of the enantiomers of (6-hydroxy-2,5,7,8-tetramethylchroman-2-yl)(piperazin-1-yl)methanone (SUL-150 and SUL-151) on constriction of isolated porcine intrarenal arteries, cumulative dose response curves to the α1 adrenoceptor agonist phenylephrine (PE) were constructed in the presence and absence of SUL-150 and SUL-151.

TP receptors = molecular target: T4, TP receptors (Homo sapiens, UniProt P21731); assay: U46619-induced intracellular calcium transients in HeLa cells; assay type: cell-based
T4 construct: HeLa cells endogenously expressing histamine and TP receptors; endogenous in cells; host or cells: HeLa
T4 sequence (P21731 1-343): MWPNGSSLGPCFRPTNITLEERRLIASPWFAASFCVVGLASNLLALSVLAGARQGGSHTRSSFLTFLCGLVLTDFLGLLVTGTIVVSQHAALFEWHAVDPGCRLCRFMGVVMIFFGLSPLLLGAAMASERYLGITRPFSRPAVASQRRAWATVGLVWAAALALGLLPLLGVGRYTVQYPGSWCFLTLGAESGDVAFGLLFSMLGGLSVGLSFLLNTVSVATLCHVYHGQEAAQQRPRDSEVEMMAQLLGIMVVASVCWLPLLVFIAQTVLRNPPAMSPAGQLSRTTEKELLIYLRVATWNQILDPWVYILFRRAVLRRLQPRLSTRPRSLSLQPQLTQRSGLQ
Method: (§7) HeLa cells endogenously expressing histamine and TP receptors were grown in DMEM-F12 medium enriched with 10% FBS and 1% penicillin-streptomycin. Cells were kept in a tissue culture incubator at 37° C. in […] atmosphere and grown in 75 cm^2 non-treated cell culture flasks. Plating was performed 24 hours before measurement on black transparent-bottom 96-well plates at 20,000 cells per well density.
(§8) To confirm specificity of SUL-150 for the α1 adrenoceptor additionally histamine and U46619 induced calcium transients were studied in HeLa cells endogenously expressing human histamine H1 receptor.

[5] = molecular target: T5, human histamine H1 receptor (Homo sapiens, UniProt P35367); assay: Histamine-induced intracellular calcium transients in HeLa cells; assay type: cell-based
T5 construct: HeLa cells endogenously expressing human histamine H1 receptor; endogenous in cells; host or cells: HeLa
T5 sequence (P35367 whole entry): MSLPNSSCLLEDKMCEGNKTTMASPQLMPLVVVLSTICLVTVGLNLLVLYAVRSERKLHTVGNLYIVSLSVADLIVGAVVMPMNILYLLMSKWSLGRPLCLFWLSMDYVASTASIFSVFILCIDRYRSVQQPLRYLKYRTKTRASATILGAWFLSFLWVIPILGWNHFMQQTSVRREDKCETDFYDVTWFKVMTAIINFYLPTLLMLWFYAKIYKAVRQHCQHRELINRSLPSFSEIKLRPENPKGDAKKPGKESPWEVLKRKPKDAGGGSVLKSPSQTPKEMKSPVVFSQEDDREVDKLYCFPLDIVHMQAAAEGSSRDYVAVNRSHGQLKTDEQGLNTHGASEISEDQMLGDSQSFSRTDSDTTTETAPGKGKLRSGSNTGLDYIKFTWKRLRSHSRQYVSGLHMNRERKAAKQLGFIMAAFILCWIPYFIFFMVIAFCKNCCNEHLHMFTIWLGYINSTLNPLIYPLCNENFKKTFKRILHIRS
Method: as §7, §8

α1 adrenoceptor [6] = assay: Methoxamine-induced constriction of isolated porcine intrarenal arteries
Method: as §4, §5
Additionally, the effects of SUL-150 were investigated on stimulation with methoxamine, which is an alternative α1 adrenoceptor agonist.

[7] = molecular target: T6, human α1 adrenoceptor subtype B (Homo sapiens, UniProt P35368); assay: Phenylephrine-induced intracellular calcium (FLIPR Calcium 6) in CHO cells, α1B; assay type: cell-based
T6 construct: expressed in transfected cells; host or cells: CHO-K1
T6 sequence (P35368 1-520): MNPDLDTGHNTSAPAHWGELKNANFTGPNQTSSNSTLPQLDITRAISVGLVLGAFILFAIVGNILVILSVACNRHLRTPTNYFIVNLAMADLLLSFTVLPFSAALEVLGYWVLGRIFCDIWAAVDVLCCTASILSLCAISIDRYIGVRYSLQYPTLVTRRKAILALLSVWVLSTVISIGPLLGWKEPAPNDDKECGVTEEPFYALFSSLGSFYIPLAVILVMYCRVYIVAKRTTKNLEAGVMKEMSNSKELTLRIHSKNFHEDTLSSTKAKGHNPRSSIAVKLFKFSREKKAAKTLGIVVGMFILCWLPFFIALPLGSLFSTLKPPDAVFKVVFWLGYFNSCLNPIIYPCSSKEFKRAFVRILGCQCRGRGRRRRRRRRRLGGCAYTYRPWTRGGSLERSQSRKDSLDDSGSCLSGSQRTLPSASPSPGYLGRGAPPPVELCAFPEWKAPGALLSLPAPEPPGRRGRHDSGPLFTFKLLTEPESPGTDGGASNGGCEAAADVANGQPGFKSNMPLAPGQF
Method: as §1, §2, §3

α1A adrenoceptor = molecular target: T7, α1A adrenoceptor (Homo sapiens, UniProt P35348); assay: Radiolabeled prazosin displacement binding assay in α1A adrenoceptor transgenic CHO cells; conditions: [7-Methoxy-3H]-prazosin
T7 construct: expressed in transfected cells; host or cells: CHO-K1
T7 sequence (P35348 1-466): T1 sequence (P35348 1-466)
Excerpt: We therefore explored whether SUL-150 could directly interact with the α1 adrenoceptor as a receptor antagonist.

EGFR transactivation = assay: Phenylephrine-induced constriction of porcine intrarenal arteries pre-treated with EGFR blocker AG1478; conditions: AG1478 20 μM and SUL-150 50 μM
Method: Inhibition of EGF receptor (EGFR) transactivation is known to inhibit α1 adrenoceptor mediated constrictions (REF). Therefore, we investigated the role of EGFR transactivation in SUL-150 mediated inhibition of vasoconstriction. For this, porcine intrarenal arteries were pre-treated with the EGFR blocker AG1478 (FIG. 3). First, an initial measurement was performed to determine the dose of AG1478 which would cause maximal inhibition of vascular constriction induced by PE (FIG. 3A). Subsequently, isolated arteries were treated with AG1478 (20 μM) and SUL-150 (50 μM) and studied for PE-induced vasoconstriction.

[8] = 10 μM SUL-150, calcium transients
[9] = 30 μM SUL-150, calcium transients
[10] = 100 μM SUL-150, calcium transients

Cc1c(C)c2c(c(C)c1O)CC[C@](C)(C(=O)N1CCNCC1)O2 [SUL-150, (R)(6-hydroxy-2,5,7,8-tetramethylchroman-2-yl)(piperazin-1-yl)methanone]
logEC50 of phenylephrine-induced calcium influx, α1A ([1]; 10 μM test compound): −7.62 ± 0.03
logEC50 of phenylephrine-induced calcium influx, α1A ([1]; 30 μM test compound): −7.28 ± 0.03
logEC50 of phenylephrine-induced calcium influx, α1A ([1]; 100 μM test compound): −6.88 ± 0.03
effect on PE-induced calcium transients, α1 adrenoceptor subtype A ([1]; in words): shifted dose response curves rightwards
logEC50 of phenylephrine-induced calcium influx, α1D ([2]; 10 μM test compound): −7.37 ± 0.10
logEC50 of phenylephrine-induced calcium influx, α1D ([2]; 30 μM test compound): −7.04 ± 0.06
logEC50 of phenylephrine-induced calcium influx, α1D ([2]; 100 μM test compound): −6.80 ± 0.10
effect on PE-induced calcium transients, α1 adrenoceptor subtype D ([2]; in words): shifted dose response curves rightwards
logEC50 of histamine-induced constriction responses ([3]; 30 μM SUL-150): −4.86 ± 0.08
effect on constriction responses to histamine ([3]; 30 μM and 100 μM, in words): did not affect
logEC50 of histamine-induced constriction responses ([3]; 100 μM SUL-150): −4.85 ± 0.10
logEC50 of U46619-induced constriction responses (thromboxane receptors; 30 μM SUL-150): −7.58 ± 0.06
logEC50 of U46619-induced constriction responses (thromboxane receptors; 100 μM SUL-150): −7.50 ± 0.04
shift in EC50 of U46619-induced constrictions (thromboxane receptors; 100 μM SUL-150, in words): small effect size
logEC50 of phenylephrine-induced constriction responses (α1 adrenoceptor [4]; 10 μM test compound): −5.11 ± 0.09*
logEC50 of phenylephrine-induced constriction responses (α1 adrenoceptor [4]; 30 μM test compound): −5.06 ± 0.06*
logEC50 of phenylephrine-induced constriction responses (α1 adrenoceptor [4]; 100 μM test compound): −4.44 ± 0.09*
logEC50 of U46619-induced response, HeLa cells (TP receptors; [8]): −6.83 ± 0.10
logEC50 of U46619-induced response, HeLa cells (TP receptors; [9]): −6.78 ± 0.18
logEC50 of U46619-induced response, HeLa cells (TP receptors; [10]): −6.75 ± 0.10
effect on U46619 induced calcium transients (TP receptors; in words): did not significantly affect
logEC50 of histamine-induced response, HeLa cells [5, 8]: −6.45 ± 0.05
logEC50 of histamine-induced response, HeLa cells [5, 9]: −6.39 ± 0.05
logEC50 of histamine-induced response, HeLa cells [5, 10]: −6.29 ± 0.06
effect on histamine induced calcium transients ([5]; in words): did not significantly affect
effect on dose response curves to methoxamine (α1 adrenoceptor [6]; SUL-150 pre-treatment (30 μM and 100 μM), intact endothelium): shifted rightward
effect on methoxamine induced constriction after removal of the endothelium (α1 adrenoceptor [6]; endothelium-denuded rings): did not abrogate the effects of SUL-150
logEC50 of phenylephrine-induced calcium influx, α1B ([7]; 10 μM test compound): −7.51 ± 0.08
logEC50 of phenylephrine-induced calcium influx, α1B ([7]; 30 μM test compound): −7.24 ± 0.07
logEC50 of phenylephrine-induced calcium influx, α1B ([7]; 100 μM test compound): −6.72 ± 0.08
effect on PE-induced calcium transients, α1 adrenoceptor subtype B ([7]; in words): shifted dose response curves rightwards
potency in displacing the radioligand compared to SUL-151 (α1A adrenoceptor): more potent
effect on PE-mediated constriction on top of AG1478 (EGFR transactivation): additional inhibitory effect
